Test results: patent US20040198841A1, “Use of thiol-based compositions in ameliorating mucosal injury” (Oregon Health & Science University, priority 2003, published 2004)

Legend:
[1] = Brizel DM, J Clin Oncol 2000; cited from earlier work
[2] = system: Normal human gastric cells (NHGC); experiment: WST-1 colorometric assay, chemoprotection against BR96-dox toxicity (Example 4); assay type: cell-based; conditions: for chemoprotection against BR96-dox toxicity: first test: drug and chemoprotectant co-incubated for 2-3 days
Experimental: Normal human gastric cells (NHGC) express high levels of the LewisY antigen recognized by the BR96 monoclonal antibody. BR-96 and BR-96-Dox toxicity was examined in NHGC to determine if toxicity could be protected against with thiol chemoprotectants.
(§1) Cytotoxicity is determined as the proportion of live cells, in comparison to untreated controls, using the WST-1 colorometric assay available from Roche Diagnostics, Indianapolis, Ind.

[3] = Weight loss and diarrhea in Long Evans rats seven days after intra-arterial Cisplatin with or without i.v. NAC (Example 1); assay type: in vivo; conditions: Cisplatin 6 mg/kg intra-arterially
Experimental: The graph shown as FIG. 1 represents the weight loss in grams in Long Evans rats seven days after administration of Cisplatin and NAC. Six mg/kg of Cisplatin was given intra-arterially either with or without intravenous (i.v.) administration of NAC at a dosage of 400 mg/kg. The NAC was administered about 15 minutes prior to the Cisplatin administration. The group without NAC consisted of 11 members. The NAC-treated group consisted of 8 members.
In the method of Example 1 for Cisplatin, the Long Evans rats were weighed, induced with isoflurane inhalant (2%+1.5% O2), intubated, placed on a respirator, and prepped for surgery. Isoflurane was then replaced with propofol (800 ug/kg/min i.v.) and a 50% nitrous/50% oxygen mixture. A ventral midline incision was made from mandible to manubrium. The left carotid bifurcation was exposed and freed, and the left external carotid artery was cannulated. NAC was then given intravenously to the treated group and intravenous saline was given to the untreated group. After 15 minutes, the left internal carotid artery was clamped, and Cisplatin (6 mg/kg) was infused through the external carotid catheter. The cannula was removed, and the skin incisions were closed using 4-0 Vicryl in a simple continuous pattern.
Seven days after Cisplatin infusion, the rats were weighed. These body weights were compared to those taken before surgery. […] This is correlated with renal failure and/or mucositis in the untreated group.

GM294 human fibroblasts = experiment: WST colorometric cytotoxicity assay, chemoprotection with or without BSO cytoenhancement (Example 3); assay type: cell-based; conditions: NAC 1000 μg/ml added immediately after melphalan, cisplatin, carboplatin or etoposide phosphate; with or without 100 μM BSO pretreatment
Experimental: Cytotoxicity was assessed in GM294 human fibroblasts, 1×10^4 cells per well in 96 well plates, using the WST colorometric assay. Cells were pretreated with or without BSO, 100 μM for 18 hours prior to addition of chemotherapeutics (melphalan=10 μg/ml, carboplatin=100 μg/ml, cisplatin=7.5 μg/ml, etoposide phosphate 100 μg/ml) either alone (open bar), or with NAC rescue, (1000 μg/ml N-acetylcysteine, striped bar), BSO cytoenhancement (black bar), or BSO cytoenhancement and NAC rescue (cross hatched bar). Data are expressed as the percentage of live cells compared to control samples (without chemotherapy) and each point represents the mean±s.d. of 4 wells. This was also repeated with normal human gastric cells (NHGC) and gastric epithelial cells.
The fibroblast cells were either preincubated or not preincubated with 100 μM BSO for about 18-24 hours prior to addition of chemotherapy, and rescue consisted of 1000-2000 μg/ml of a thiol anti-mucosal injury agent added immediately after chemotherapy. […] Protection of epithelia cells allows for the prevention and treatment of mucositis of these tissues.

LX-1 cells = experiment: Chemoprotection in LX-1 cells (Example 4); assay type: cell-based; conditions: low dosages, about 0.2 to about 0.5 mg/ml
Experimental: as §1
Low dosages, about 0.2 to about 0.5 mg/ml, of NAC were protective against alkylators in LX-1 cells. NAC was 10-90% chemoprotective of NHGC at high dosages, such as from about 1-5 mg/ml.

[4] = Weight loss in Long Evans rats 7 days after cisplatin to the aorta, 15 minutes after i.v. saline or NAC (Example 5); assay type: in vivo; conditions: cisplatin 6 mg/kg via right external carotid artery cannula; NAC 400 mg/kg i.v. 15 minutes before; n=8 per group
Experimental: Before the study began, the rats were weighed to establish a baseline. Long Evans rats were treated with cisplatin 6 mg/kg delivered to the aorta via a right external carotid artery cannula 15 minutes after intravenous infusion of saline (n=8) or NAC 400 mg/kg (n=8). This procedure was preformed by the rats being induced with isoflurane inhalant (2%+1.5% oxygen), intubated, placed on a respirator and prepped for surgery. Isoflurane was then replaced with propofol (800 μg/kg/min i.v.) and a 50% nitrous/50% oxygen mixture. A ventral midline incision was made from mandible to manubrium. The right carotid bifurcation was exposed and freed, and the right external carotid artery was cannulated. NAC (400 mg/kg) was then given to the treated group (n=8) and i.v. saline was given to the untreated group (n=8). After 15 minutes, the right internal carotid artery was clamped and cisplatin (6 mg/kg) was rapidly infused through the external carotid catheter. The cannula was removed and the skin incisions were closed using 4-0 Vicryl in a simple continuous pattern. Health and well being were monitored daily post-surgery. After seven days, the animals were weighed and this value compared to the baseline.

LX-1 SCLC = experiment: Weight loss and survival in nude rats 12 days after intracerebral inoculation with LX-1 SCLC cells, with or without oral TMZ (Example 2); assay type: in vivo
Experimental: TMZ was given at a dosage of 5 mg orally, once daily, on days 6-11. There were 10 members in the untreated group and seven members in the group treated with TMZ.
For the intracerebral inoculations, the nude rats were anesthetized with a mixture of intraperitoneal ketamine (60 mg/kg) and diazepam (7.5 mg/kg). The head was shaved and scrubbed with Betadine, a midline incision made, and a 2 mm burr hole using stereotaxic coordinates was made. A 27 g needle was used for inoculation with a 100 ul Hamilton syringe, placed […] ventral to the surface, deep in the right caudate putamen. Inoculants used were LX-1 SCLC. The needle was withdrawn and the incision closed with wound clips. One group of rats received no treatment, while the other group received oral 5 mg doses of TMZ, an alkylating agent, once daily on days 6-11 after inoculation, delivered through a feeding tube while under isoflurane anesthesia. On day 12, all rats were weighed, sacrificed, and the brains removed and fixed in formalin for subsequent tumor-volume analysis.
It is believed that TMZ effects the size of any lesions in the brain. The TMZ may decrease the size of any lesions in the brain; those animals experiencing more constant or improved appetite than animals with larger tumors which experienced appetite suppression.

[5] = NAC 400 mg/kg i.v. 15 minutes prior

## NCCCNCCSP(=O)(O)O [Amifostine, amifostine]
[1]
  effect on mucositis in patients undergoing radiation therapy: not to reduce mucositis

## CCOC(=O)CNC(=O)[C@H](CS)NC(=O)CC[C@H](N)C(=O)O [GSH ethyl ester, glutathione ethyl ester]
[2]
  chemoprotection against BR96-dox toxicity: No chemoprotection

## CC(=O)N[C@@H](CS)C(=O)O [NAC, N-acetylcysteine]
[3]; [5]
  diarrhea, group without NAC compared to NAC treated group: greater diarrhea than the NAC treated group
  subjective condition of untreated rats compared to NAC-treated group: more depressed, cachexic, and dehydrated than the NAC-treated group
[3]; NAC 400 mg/kg i.v. about 15 minutes prior, unpaired t-test p<0.0002
  loss of body weight after 7 days, group without NAC compared to NAC-treated group: significantly larger loss of body weight
GM294 human fibroblasts
  chemoprotection of fibroblast cells (percentage of live cells): protective effect
[2]; first test: co-incubated for 2-3 days, high dosages, about 1-5 mg/ml
  chemoprotective of NHGC: 10-90%
[2]; second test: 4 hour pulsed treatment with BR-96-dox and NAC
  chemoprotective, pulsed treatment: 0-20%
LX-1 cells
  protection against alkylators in LX-1 cells: protective
[4]
  weight loss after 7 days compared to control: less weight loss than the control

## O=S([O-])([O-])=S.[Na+].[Na+] [STS, sodium thiosulfate]
[2]
  chemoprotection against BR96-dox toxicity: No chemoprotection

## Cn1nnc2c(C(N)=O)ncn2c1=O [TMZ, Temazolamide]
LX-1 SCLC; TMZ 5 mg orally once daily on days 6-11
  subjective activity at day 12 compared to untreated group: more active and responsive
LX-1 SCLC; TMZ 5 mg orally once daily on days 6-11, three rats without TMZ did not survive to day 12
  survival to day 12: all of the TMZ rats survived to day 12
LX-1 SCLC; TMZ 5 mg orally once daily on days 6-11 after inoculation, unpaired t-test p<0.0041
  loss of body weight at day 12, group without TMZ compared to group treated with TMZ: significantly higher loss of body weight

## CSCC[C@@H](N)C(=O)O [d-Methionine, D-methionine]
[2]
  chemoprotection against BR96-dox toxicity: No chemoprotection
